Test results from patent US6500944B2, “Sulfurizing reagent: 3-aryl-1,2,4-dithiazoline-5-ones” (Avecia Biotechnology, Inc., priority 1997, dated 2002).

Experiments:
[1] = Stability study in CH3CN; assay type: physicochemical; conditions: 25° C., checked by HPLC and 1H-NMR
Method: Stability and solubility studies of the sulfur transfer reagents were performed. […] The stability of the compound was checked by HPLC and ^1H-NMR.
(§1) The solubility and stability studies were carried out in CH3CN at 25° C. The saturated solution was dried, and the solubility was determined by the weight of the testing compounds in the exact volume of testing solution. The stability was determined based on either TLC or HPLC and ^1H-NMR analyses.

[2] = Solubility study in CH3CN; assay type: physicochemical; conditions: 25° C.
Method: as §1

O=c1nc(-c2ccccc2)ss1 [3-phenyl-1,2,4-dithiazoline-5-one]
stable in CH3CN [1]: more than thirty | solubility in CH3CN [2]: highly soluble
